{
  "source": "patent US11236081B2",
  "about": "“Crystalline salts of corydalmine” (priority 2018, dated 2022)",
  "experiment": "Pharmacokinetic study: plasma concentration and plasma PK parameters after IV/PO dosing (LC-MS/MS, WinNonlin)",
  "format": "in vivo, Male SD Rat",
  "details": "male SD rat",
  "description": "Pharmacokinetic and Brain Penetration Study\nDose formulation processing during dosing: The dose formulations will be kept at room temperature.\nConcentrations of Test Article in the plasma samples will be analyzed using a LC-MS/MS method.\nWinNonlin (Phoenix™, version 6.1) or other similar software will be used for pharmacokinetic calculations. The following pharmacokinetic parameters will be calculated, whenever possible from the plasma concentration versus time data:\nIV administration: T1/2, C0, AUClast, AUCinf, MRTinf, Cl, Vss, Number of Points for Regression.\nPO administration: T1/2, Cmax, Tmax, MRTinf, AUCinf, AUClast, F %, Number of Points for Regression.\nThe pharmacokinetic data will be described using descriptive statistics such as mean, standard deviation.",
  "key": {"[1]": {"details": "IV 3 mg/kg, plasma, individual rats, listed as TLZ-16 freebase, 3 mg/kg"}, "[2]": {"details": "PO 10 mg/kg (equal to freebase), plasma, individual rats, vehicle 20% HP-β-CD in water (POA, freebase) or water (salts), listed as TLZ-16 freebase, 10 mg/kg"}, "[3]": {"details": "PO 10 mg/kg (equal to freebase), plasma, mean n=3, vehicle 20% HP-β-CD in water (POA, freebase) or water (salts)"}},
  "note": "“And” between values parts separate entries of the source, which are not always exact repeats. Equal entries are not always repeated.",
  "data": [
    {"smiles": "COc1cc2c(cc1OC)[C@@H]1Cc3ccc(O)c(OC)c3CN1CC2", "note": "[Compound (1), l-corydalmine]", "values": [
      {"measurement": "concentration in plasma", "setting": "IV 3 mg/kg, 0 h, individual rats", "value": "BLOQ (BLOQ = below limit of quantitation (0.2 ng/mL))"},
      {"measurement": "concentration in plasma", "setting": "IV 3 mg/kg, 0.083 h, individual rats, listed as TLZ-16 freebase, 3 mg/kg", "value": "1410 ng/mL and 1610 ng/mL"},
      {"measurement": "concentration in plasma", "setting": "IV 3 mg/kg, 0.25 h, individual rats, listed as TLZ-16 freebase, 3 mg/kg", "value": "960 ng/mL and 995 ng/mL"},
      {"measurement": "concentration in plasma", "setting": "IV 3 mg/kg, 0.5 h, individual rats, listed as TLZ-16 freebase, 3 mg/kg", "value": "496 ng/mL and 536 ng/mL"},
      {"measurement": "concentration in plasma", "setting": "IV 3 mg/kg, 1 h, individual rats, listed as TLZ-16 freebase, 3 mg/kg", "value": "174 ng/mL and 206 ng/mL"},
      {"measurement": "concentration in plasma", "setting": "IV 3 mg/kg, 2 h, individual rats, listed as TLZ-16 freebase, 3 mg/kg", "value": "81.2 ng/mL and 60.6 ng/mL"},
      {"measurement": "concentration in plasma", "setting": "IV 3 mg/kg, 4 h, individual rats, listed as TLZ-16 freebase, 3 mg/kg", "value": "28.6 ng/mL and 43.0 ng/mL and 20.2 ng/mL"},
      {"measurement": "concentration in plasma", "setting": "IV 3 mg/kg, 8 h, individual rats, listed as TLZ-16 freebase, 3 mg/kg", "value": "5.24 ng/mL and 11.7 ng/mL and 2.20 ng/mL"},
      {"measurement": "concentration in plasma", "setting": "IV 3 mg/kg, 24 h, individual rats, listed as TLZ-16 freebase, 3 mg/kg", "value": "BLOQ (BLOQ = below limit of quantitation (0.2 ng/mL))"},
      {"measurement": "AUCInf", "setting": "[1]", "value": "1074 ng·h/mL and 1030 ng·h/mL"},
      {"measurement": "AUClast", "setting": "[1]", "value": "1038 ng·h/mL and 1027 ng·h/mL"},
      {"measurement": "AUClast/D", "setting": "[1]", "value": "312 kg·ng·h/mL/mg and 346 kg·ng·h/mL/mg and 342 kg·ng·h/mL/mg"},
      {"measurement": "AUC—% Extrap_obs", "setting": "[1]", "value": "1.32% and 3.37% and 0.306%"},
      {"measurement": "C0", "setting": "[1]", "value": "1707 ng/mL and 2045 ng/mL"},
      {"measurement": "Cl_obs", "setting": "[1]", "value": "52.6 mL/min/kg and 46.5 mL/min/kg and 48.6 mL/min/kg"},
      {"measurement": "MRTInf_obs", "setting": "[1]", "value": "1.52 h and 1.08 h"},
      {"measurement": "T1/2", "setting": "[1]", "value": "1.66 h and 2.14 h and 4.37 h"},
      {"measurement": "Vss_obs", "setting": "[1]", "value": "3.43 L/kg and 4.26 L/kg and 3.16 L/kg"},
      {"measurement": "AUClast/D, Mean", "setting": "IV 3 mg/kg, plasma, mean n=3", "value": 334, "unit": "kg·ng·h/mL/mg"},
      {"measurement": "AUC—% Extrap_obs, Mean", "setting": "IV 3 mg/kg, plasma, mean n=3", "value": 1.67, "unit": "%"},
      {"measurement": "C0, Mean", "setting": "IV 3 mg/kg, plasma, mean n=3", "value": 1822, "unit": "ng/mL"},
      {"measurement": "Cl_obs, Mean", "setting": "IV 3 mg/kg, plasma, mean n=3", "value": 49.2, "unit": "mL/min/kg"},
      {"measurement": "Vss_obs, Mean", "setting": "IV 3 mg/kg, plasma, mean n=3", "value": 3.61, "unit": "L/kg"},
      {"measurement": "F", "setting": "PO 10 mg/kg (equal to freebase) vs IV 3 mg/kg freebase, individual rats, vehicle 20% HP-β-CD in water (POA, freebase) or water (salts), listed as TLZ-16 freebase", "value": "18.4% and 27.3% and 24.4%"},
      {"measurement": "F, Mean", "setting": "PO 10 mg/kg (equal to freebase) vs IV 3 mg/kg freebase, mean n=3, vehicle 20% HP-β-CD in water (POA, freebase) or water (salts)", "value": 23.4, "unit": "%"},
      {"measurement": "concentration in plasma", "setting": "PO 10 mg/kg (equal to freebase), 0 h, individual rats, vehicle 20% HP-β-CD in water (POA, freebase) or water (salts)", "value": "BLOQ (BLOQ = below limit of quantitation (0.2 ng/mL))"},
      {"measurement": "concentration in plasma", "setting": "PO 10 mg/kg (equal to freebase), 0.25 h, individual rats, vehicle 20% HP-β-CD in water (POA, freebase) or water (salts), listed as TLZ-16 freebase, 10 mg/kg", "value": "127 ng/mL and 358 ng/mL and 86.7 ng/mL"},
      {"measurement": "concentration in plasma", "setting": "PO 10 mg/kg (equal to freebase), 0.5 h, individual rats, vehicle 20% HP-β-CD in water (POA, freebase) or water (salts), listed as TLZ-16 freebase, 10 mg/kg", "value": "139 ng/mL and 344 ng/mL and 109 ng/mL"},
      {"measurement": "concentration in plasma", "setting": "PO 10 mg/kg (equal to freebase), 1 h, individual rats, vehicle 20% HP-β-CD in water (POA, freebase) or water (salts), listed as TLZ-16 freebase, 10 mg/kg", "value": "167 ng/mL and 98.9 ng/mL"},
      {"measurement": "concentration in plasma", "setting": "PO 10 mg/kg (equal to freebase), 2 h, individual rats, vehicle 20% HP-β-CD in water (POA, freebase) or water (salts), listed as TLZ-16 freebase, 10 mg/kg", "value": "53.1 ng/mL and 71.9 ng/mL"},
      {"measurement": "concentration in plasma", "setting": "PO 10 mg/kg (equal to freebase), 4 h, individual rats, vehicle 20% HP-β-CD in water (POA, freebase) or water (salts), listed as TLZ-16 freebase, 10 mg/kg", "value": "47.1 ng/mL and 40.1 ng/mL"},
      {"measurement": "concentration in plasma", "setting": "PO 10 mg/kg (equal to freebase), 8 h, individual rats, vehicle 20% HP-β-CD in water (POA, freebase) or water (salts), listed as TLZ-16 freebase, 10 mg/kg", "value": "35.7 ng/mL and 45.3 ng/mL"},
      {"measurement": "concentration in plasma", "setting": "PO 10 mg/kg (equal to freebase), 24 h, individual rats, vehicle 20% HP-β-CD in water (POA, freebase) or water (salts), listed as TLZ-16 freebase, 10 mg/kg", "value": "BLOQ (BLOQ = below limit of quantitation (0.2 ng/mL)) and 0.278 ng/mL and 0.869 ng/mL"},
      {"measurement": "AUCInf", "setting": "[2]", "value": "925 ng·h/mL and 829 ng·h/mL"},
      {"measurement": "AUClast", "setting": "[2]", "value": "924 ng·h/mL and 825 ng·h/mL"},
      {"measurement": "AUClast/D", "setting": "[2]", "value": "61.5 kg·ng·h/mL/mg and 92.4 kg·ng·h/mL/mg and 82.5 kg·ng·h/mL/mg"},
      {"measurement": "AUC—% Extrap_obs", "setting": "[2]", "value": "58.7% and 0.111% and 0.505%"},
      {"measurement": "Cmax", "setting": "[2]", "value": "139 ng/mL and 358 ng/mL and 109 ng/mL"},
      {"measurement": "MRTInf_obs", "setting": "[2]", "value": "13.6 h and 4.19 h and 5.68 h"},
      {"measurement": "T1/2", "setting": "[2]", "value": "8.80 h and 2.57 h and 3.34 h"},
      {"measurement": "Tmax", "setting": "[2]", "value": 0.25, "unit": "h"},
      {"measurement": "AUClast/D, Mean", "setting": "[3]", "value": 78.8, "unit": "kg·ng·h/mL/mg"},
      {"measurement": "AUC—% Extrap_obs, Mean", "setting": "[3]", "value": 19.8, "unit": "%"}
    ]}
  ]
}
